Measured values as given in patent US20110064661A1, “NON-RADIOACTIVE PHOSPHOLIPID COMPOUNDS, COMPOSITIONS, AND METHODS OF USE” (priority 2009, published 2011).

How the values were obtained:
active Akt (pAkt, S473) [1] = experiment: Inhibition of Akt activation (pAkt Ser473 sandwich ELISA) in A549 cells; type: cell-based; conditions: Homo sapiens
Procedure: A549 cells, obtained from American Type Culture Collection (ATCC), are a human non-small cell lung cancer cell line. A549 cells have wild-type functional PTEN.
(§1) A549 and PC-3 cells were plated at a density of 200,000 cells per ml.
(§2) All treatments were preformed in triplicate.
(§3) A549 and PC-3 cells are treated with ^127I-CLR1401 for 24 hours. • 0, 3, 5, 10 μM of ^127I-CLR1401 • Protein was isolated from treated cells. • The level of activated Akt was determined by examining the phosphorylated (active) form at Ser473 by enzyme linked immunosorbent assay (ELISA). • PathScan Phospho-Akt1 (Ser473) Sandwich ELISA Kit (Cell Signaling #7160). • ELISA controls: • Negative Control: A549 and PC-3 cells treated with 50 μM LY294,002 for 24 hrs. LY294,002 is a specific cell permeable phosphatidylinositol 3-kinase (PI3K) inhibitor that inhibits the activation of Akt by affecting the amount of phosphatidylinositol(3,4,5) trisphosphate produced by PI3K. • Positive Control: A549 and PC-3 cells stimulated with 10 μg/ml Insulin for 24 hrs. • Negative Control: A549 in serum free media. • 1) The ELISA was preformed per the manufacturer's instructions. Briefly, 100 μg of protein from the cell lysates were incubated in the pre-coated 96-well plate overnight at 4° C. The wells were then washed 4 times with 1XWash Buffer (also provided). Then incubated with the primary Akt antibody for 2 hours at 37° C. with 5% CO2 in air. After the primary incubation the plate was then washed 4 times with 1XWash Buffer and incubated with the HRP-linked secondary antibody for 1 hour at 37° C. with 5% CO2 in air. The plate was then washed 4 times with 1× Wash Buffer and developed using the TMB substrate provided. TMB substrate (tetramethylbenzidine) is a colormetric substrate used in the ELISA assay. TMB (3,3″,5,5″-tetramethylbenzidine) is a chromogen that yields a blue color when oxidized with hydrogen peroxide (catalyzed by HRP) with major absorbances at 370 nm and 652 nm. The color then changes to yellow with the addition of sulfuric or phosphoric acid with maximum absorbance at 450 nm. it is used for the detection of target proteins that have been bound to an antibody that contains a Horseradish Peroxidase tag. • After the 10 minute incubation at 37° C. the reaction was stopped by the addition of stop buffer (also provided). The absorbance was then measured at 450 nm using a Synergy HT microplate reader (BioTek). Data are reported as absorbance at 450 nm.

active Akt (pAkt, S473) [2] = experiment: Inhibition of Akt activation (pAkt Ser473 sandwich ELISA) in PC-3 cells; type: cell-based; conditions: Homo sapiens
Procedure: PC-3 cells, obtained from American Type Culture Collection (ATCC), are a human prostate carcinoma cell line. PC-3 cells have a homozygous deletion of PTEN.
as §1, §2, §3

A549 cells [3] = experiment: Cell growth inhibition by MTT assay; type: cell-based, human
Procedure: 2. Cell Growth Inhibition by ^127I-CLR1401. • 1) Growth inhibition induced by ^127I-CLR1401 was determined by MTT(3-(4,5-dimethylthiazol-2-yl)-2,5-diphenyl […] bromide) assay. MTT is a pale yellow substrate that is cleaved by living cells to yield a dark blue formazan product.
Briefly, A549 cells were plated at a density of 200,000 cells per well in a six well plate and allowed to adhere overnight.
The cells were then treated with varying concentrations of ^127I-CLR1401 (0.0078, 0.392, 0.784, 1.568, 3.137, 4.705, 7.84, 39.2, 78.4 μM) in triplicate and then collected for the MTT assay at the indicated time points. Cells were then incubated with 0.5 mg/ml MTT in 1×PBS for 3 hours at 37° C. with 5% CO2 in air.
Absorbance was measured at 540 nm using a Synergy HT microplate reader. The absorbance value at 540 nm is directly proportional to the number of viable cells present.

A549 cells [4] = experiment: Uptake and Retention Assay of 125I-CLR1404; type: cell-based, human; conditions: 24 hours, 0.588-2.156 μM, serum free media
Procedure: The Uptake and Retention Assay was preformed as described previously. Briefly, A549 human NSCLC cells were plated at a density of 150,000 cells/ml in 6-well plates.
Cells were then allowed to adhere overnight. All plates were then treated with the indicated mass of either ^125I-CLR1404 with or without ^127I-CLR1401 as indicated by the experimental parameters.
Cells were incubated in the presence of drug for 24 hrs prior to collection. At 24 hrs post treatment, the media was removed and the cells were washed once with 1 ml of ice cold 1×PBS+1% BSA. The cells were then removed from the plate by trypsinization with 1 ml of 1× Trypsin 1×PBS solution and split into 2 samples of 500 μl each. Both sets of sample were pelleted by centrifugation for 30 seconds at 2000×g at room temperature. The supernatant was removed and discarded.
One pellet for each sample set was resuspended in 200 μl of 1×PBS (Tube 1, Sample 1), and the other pellet was resuspened in 100% EtOH (Tube 2, Sample 1). A 100 μl sample from Tube 1 was taken for evaluation of DNA content in order to determine cell number (data was generated using absorbance at 260 nm in a microplate reader). A 10 μl sample from Tube 2 was taken for evaluation of radioactivity content using a gamma counter. […] All treatments were preformed in Serum Free media. […]

[5] = 3 μM, 24 hours, read-out: Percent Inhibition of Akt
[6] = 5 μM, 24 hours, read-out: Percent Inhibition of Akt
[7] = 10 μM, 24 hours, read-out: Percent Inhibition of Akt

IC50 (active Akt (pAkt, S473) [1])	IC50 (active Akt (pAkt, S473) [2])	IC50 (A549 cells [3]; Homo sapiens, A549 cells, MTT, read-out: 50% inhibitory concentration for cell growth)	Compound	inhibition at 3 µM (active Akt (pAkt, S473) [1]; [5])	inhibition at 5 µM (active Akt (pAkt, S473) [1]; [6])	inhibition at 10 µM (active Akt (pAkt, S473) [1]; [7])	inhibition at 3 µM (active Akt (pAkt, S473) [2]; [5])	inhibition at 5 µM (active Akt (pAkt, S473) [2]; [6])	inhibition at 10 µM (active Akt (pAkt, S473) [2]; [7])	effect on the growth of A549 cells (A549 cells [3]; low doses, FIG. 5A)	uptake and retention of 125I-CLR1404 with increasing mass dose of 125I-CLR1404 (A549 cells [4])
5.9 µM	5 µM	4.5 µM	C[N+](C)(C)CCOP(=O)([O-])OCCCCCCCCCCCCCCCCCCc1ccc(I)cc1 [^127I-CLR1401, 18-(p-Iodophenyl)octadecyl phosphocholine]	26%	42%	85%	21%	61%	97%	no significant effect	
			18-(p-Iodophenyl)octadecyl phosphocholine [^125I-CLR1404]								distinct increase in the amount of compound taken up and retained
